# Source: patent US4452982A, “Process for the preparation of nitrogen-bridgehead condensed pyrimidine compounds, and pharmaceutical compositions containing them” (Chinoin Gyogyszer es Vegyeszeti Termekek Gyara R.T., priority 1979, dated 1984)
# How the values were obtained:
# [1] = tested on: allergic reactions; assay: PCA test-method (Ovary), antiallergic activity; type: in vivo; conditions: for ED50: iv
# Protocol: The test is carried out by the PCA test-method (Ovary: J. Immun. 81, 355 (1958)) and the Church-test (British J. Pharm. 46, 56-66 (1972); Immunology 29, 527-534 (1975)) and for comparison disodium chromoglycate is used.
# [2] = tested on: allergic symptoms; conditions: antiasthmatic agent, cited from earlier work
SMILES,ED50 [1],"oral activity / route of effectiveness ([1]; oral vs. intravenous, conclusion from Table I)",effect by inhaler (background statement) ([2]; inhaler),oral activity (background statement) ([2]; orally)
"Cc1ccccc1NC1=CCC(C)n2c1ncc(C(=O)O)c2=O (stereo not drawn) [6-methyl-9-(2-methylphenylamino)-4-oxo-6,7-dihydro-4H--pyrido[1,2-a]pyrimidine-3-carboxylic acid]",5.4 µmol/kg,–,–,–
"CC1CC=C(Nc2ccccc2)c2ncc(C(=O)O)c(=O)n21 (stereo not drawn) [9-anilino-6-methyl-4-oxo-6,7-dihydro-4H-pyrido[1,2-a]pyrimidine-3-carboxylic acid]",1.3 µmol/kg,–,–,–
O=C(O)c1cc(=O)c2c(OCC(O)COc3cccc4oc(C(=O)O)cc(=O)c34)cccc2o1 [disodium chromoglycolate],1 µmol/kg,effective only when administered intravenously,produces the desired effect only by using an inhaler,not active orally
